In US10624875B2, “Methods and compositions for treating schizophrenia” (The Johns Hopkins University, priority 2012, dated 2020):

Legend:
[1] = system: Age-Impaired (AI) Long-Evans rats; assay: Morris Water Maze (MWM) retention trial, spatial memory; assay type: in vivo, rat; conditions: retention trial 24 hours after two training days
Method: The MWM apparatus consists of a large, circular pool (diameter 1.83 m; height, 0.58 m) filled with water (27° C.) that is made opaque through the addition of non-toxic pigment or some other substance. In the typical “hidden platform” version of the test, rats are trained to find a camouflaged white escape platform (height, 34.5 cm) that is positioned in the center of one quadrant of the maze about 1.0 cm below the water surface. This platform can be retracted to the bottom of the tank or raised to its normal position from outside the maze during behavioral testing. The location of the platform remains constant from trial to trial. Because there are no local cues that mark the position of the platform, the rat's ability to locate it efficiently from any starting position at the perimeter of the pool depends on using information surrounding the maze. The maze is surrounded by black curtains to which white patterns are affixed to provide a configuration of spatial cues. A second platform (height 37.5 cm), with its surface painted black is elevated 2 cm above the water surface during cue training to control for factors unrelated to cognition. The behavior of a rat in the pool is recorded by a camera that is suspended 2.5 m above the center of the pool. […] At the completion of the protocol using the hidden platform, rats are assessed for cue learning using the visible platform. […]

DG/CA3 = assay: fMRI activity during explicit 3-alternative forced choice task, DG/CA3; assay type: in vivo, human; conditions: aMCI subjects, 125 mg twice a day for two weeks, versus placebo
Method: A within-subjects trial of 8 weeks duration, involving 17 amnestic MCI (aMCI) subjects and 17 age-matched controls with a low dose treatment of levetiracetam is conducted. During the course of the study, each aMCI subject receives both drug and placebo treatments separately in two periods of two weeks each, with the order of treatments among different aMCI subjects counterbalanced (see FIG. 7). Age-matched control subjects treated with placebo serve as a further control. Cognitive testing and fMRI imaging data are obtained from the subjects after each two week period of drug/placebo treatment. As described above, the drug treatment period is the two weeks preceding Visit 1 or 2 (with the two week period preceding the other Visit being the placebo phase). […] Imaging data are obtained through high-resolution methods developed in the Stark laboratory. Data are collected on a Phillips 3 Tesla scanner (Eindhoven, The Netherlands) equipped with an 8-channel SENSE (Sensitivity Encoding) head coil, located at the F.M. Kirby Research Center for Functional Brain Imaging at the Kennedy Krieger Institute (Baltimore, Md.). […] Group data are analyzed using a two-way Analysis of Variance (ANOVA) with trial types and group as fixed factors, and subject as a random factor nested within group. […]

CC[C@@H](C(N)=O)N1CCCC1=O [levetiracetam, (2S)-2-(2-oxopyrrolidin-1-yl) butanamide]
time spent in the target quadrant versus vehicle-treated controls ([1]; 5 mg/kg/day i.p.): did not significantly improve | time spent in the target annulus ([1]; 10 mg/kg/day i.p.): effectiveness of the 10 mg/kg/day levetiracetam treatment was also seen | DG/CA3 activity during lure stimuli correctly identified as similar (DG/CA3): reduces DG/CA3 hyper-activity
